The results in this text go back to US20240390396A1 (priority 2021, published 2024).

One series deals with MCF7 cells. It counts as cell-based. Particulars: 24 h; cannabis containing 4 μM CBD; 32 μM capsazepine; 400 μM capsaicin; 5 μM thapsigargin; alone or combined.
The next series has as its system T47D cells. It counts as cell-based. As to conditions: 24 h; cannabis containing 4 μM CBD; 32 μM capsazepine; 400 μM capsaicin; 5 μM thapsigargin; alone or combined.
A further series has as its system MDA-MB-231 cells. As to conditions: 24 h.
A further series concerns MDA-MB-468 cells. In kind it is cell-based. As to conditions: 24 h; 1:2 dilution of the original doses: cannabis containing 2 μM CBD; 16 μM capsazepine; capsaicin and thapsigargin diluted 1:2 from 400 μM and 5 μM; alone or combined.
The next series concerns RAW 264.7 macrophages. The series is described as follows: Nitric oxide (NO) secretion by LPS-activated macrophages (Griess reagent). As to conditions: for effect of ECS receptor antagonists alone on NO secretion: 24 h (FIG. 5B). It counts as cell-based. The procedure: NO secretion was determined by measuring the amount of nitrite, using a Griess reagent (Promega) according to manufacturer's protocol. Briefly, 50 μl of supernatant was added to 96-well plate, followed by 50 μl sulphanilamide and 50 μl N−1-napthylethylenediamine dihydrochloride (NED). The optical densities were quantified using a multi-well spectrophotometer, and nitrite concentrations were estimated using a standard nitrite curve. Results were calculated as the percentage of control cultures.
The poor bioavailability of CBD may hamper its effectiveness as an anti-inflammatory drug. To test whether antagonists of the ECS may potentiate the anti-inflammatory effect of CBD, the inventors used the RAW 264.7 macrophages as a model system for inflammation. Exposure of cells to bacterial lipopolysaccharide (LPS) initiates a signal transduction cascade that leads to increased production of nitrite oxide (NO), secretion of pro-inflammatory cytokines, and acquisition of enhanced bactericidal activity.
First, the inventors studied the response of LPS-activated RAW 264.7 cells to CBD. Cells were cultured with LPS, with/without CBD at 0.63-5 μM concentrations for 24 hrs. Supernatants were harvested for measuring NO by spectrophotometry using the Greiss reagent. […] To test whether antagonists of the ECS can modify the anti-inflammatory activity of CBD, the inventors further exposed the cells to LPS, CBD, ECS antagonists (detailed in Table 2), and their combinations. Two distinct CB2 antagonists (AM630 and COR170) were tested, as CB2 is known to be involved in the regulation of inflammation.

The mark [1] stands for this setting: cannabis containing 4 μM CBD, 400 μM capsaicin, 5 μM thapsigargin, alone or combined.

“And” between values parts separate entries of the source, which are not always exact repeats. Identical values can stand only once. Like-named read-outs stand apart in the source and are kept apart here.

Take `C/C=C(/C)C(=O)O[C@H]1C(C)=C2[C@H]([C@@H]1OC(=O)CCCCCCC)[C@@](C)(OC(C)=O)C[C@H](OC(=O)CCC)[C@@]1(O)[C@H]2OC(=O)[C@@]1(C)O` [thapsigargin]: the cell survival in the series on MCF7 cells is recorded as 24±6%; in the series on T47D cells, 72±7%; with MDA-MB-231 cells (setting [1]) it was 34±23%.

Take `COc1cc(CNC(=O)CCCC/C=C/C(C)C)ccc1O` [capsaicin]: the cell survival in the series with MCF7 cells was 19±9%; in the series with T47D cells, 39±11%; in the series with MDA-MB-468 cells it was 60±11% and 62±9%; with MDA-MB-231 cells (setting [1]), 34±25%.

Take `Oc1cc2c(cc1O)CN(C(=S)NCCc1ccc(Cl)cc1)CCC2` [capsazepine]: the cell survival in the series with MCF7 cells is recorded as 40±7%; with T47D cells, 37±21%; with MDA-MB-468 cells, 80±9%. Moreover, the “effect of ECS receptor antagonists alone on NO secretion” value in the series with RAW 264.7 macrophages was “mild effect on NO secretion”. Besides, in the series with MDA-MB-231 cells (co-treatment with CBD-enriched cannabis (FIG. 1B)), the “effect of ECS receptor antagonist on cytotoxic activity of cannabis” value is “enhanced the cytotoxic effect of cannabis”.

Consider `C=C(C)[C@@H]1CCC(C)=C[C@H]1c1c(O)cc(CCCCC)cc1O` [CBD, cannabidiol], for which, in the series on RAW 264.7 macrophages (24 h, CBD 0.63-5 μM (FIG. 5A)), the “NO secretion, dose response” value was “reduced NO secretion in a dose dependent manner”. Also, the activity at 2.5 µM in the series with RAW 264.7 macrophages (Mus musculus, RAW264.7, 24 h, 2.5 μM CBD, with or without 10 μM capsazepine, read-out: NO secretion, % of control cells treated with vehicle (DMSO)) was found to be 6 ± 5%. In addition, the cell survival with MDA-MB-231 cells (2.5 μM pure CBD, with or without 32 μM capsazepine (FIG. 1D)) was found to be 72±13%.

Regarding `CCC(=O)NC[C@H](Cc1ccc(OCCc2nc(-c3ccccc3)oc2C)cc1)N/C(C)=C\C(=O)c1ccc(C(F)(F)F)cc1` [GW6471], the “effect of ECS receptor antagonists alone on NO secretion” value in the series with RAW 264.7 macrophages is “mild effect on NO secretion”.
